What was measured:
[1] = test system: rice; experiment: Test B flood test rice; format: in vivo, Oryza sativa
In short: (§1)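 Each value is a visual injury score relative to controls, with 10 meaning complete control and 0 no effect. Evaluation took place twelve to sixteen days after the 2-leaf-stage plants were treated and kept in the greenhouse.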

[2] = test system: purple nutsedge; experiment: Test B pre/postemergence purple nutsedge; format: in vivo, Cyperus rotundus; conditions: for Nutsedge plant response rating: scale of 0 to 10 where 0 is no effect and 10 is complete control
In short: (§2)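 Herbicidal effect was estimated by eye on a ten-point control scale after plants spent twelve to sixteen days in a greenhouse following soil or foliar treatment. Foliar sprays targeted plants at one to four leaves; all doses were formulated in a non-phytotoxic solvent with surfactant.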

[3] = test system: crabgrass; experiment: Test B pre/postemergence crabgrass; format: in vivo, Digitaria sanguinalis; conditions: for Crabgrass plant response rating: scale of 0 to 10 where 0 is no effect and 10 is complete control
In short: as §2

[4] = test system: rape; experiment: Test B pre/postemergence rape; format: in vivo, Brassica napus; conditions: for Rape plant response rating: scale of 0 to 10 where 0 is no effect and 10 is complete control
In short: as §2

[5] = test system: duck salad; experiment: Test B flood test duck salad; format: in vivo, Heteranthera limosa
In short: as §1

[6] = test system: pigweed; experiment: Test B pre/postemergence pigweed; format: in vivo, Amaranthus retroflexus; conditions: for Redroot pigweed plant response rating: scale of 0 to 10 where 0 is no effect and 10 is complete control
In short: as §2

[7] = test system: wild oat; experiment: Test B pre/postemergence wild oat; format: in vivo, Avena fatua; conditions: for Wild oats plant response rating: scale of 0 to 10 where 0 is no effect and 10 is complete control
In short: as §2

[8] = test system: surinam grass; experiment: Test B pre/postemergence surinam grass; format: in vivo, Brachiaria decumbens; conditions: for B. signalgrass plant response rating: scale of 0 to 10 where 0 is no effect and 10 is complete control
In short: as §2

[9] = test system: soybean; experiment: Test B pre/postemergence soybean; format: in vivo, Glycine max; conditions: for Soybean plant response rating: scale of 0 to 10 where 0 is no effect and 10 is complete control
In short: as §2

[10] = test system: giant foxtail; experiment: Test B pre/postemergence giant foxtail; format: in vivo, Setaria faberii; conditions: for Giant foxtail plant response rating: scale of 0 to 10 where 0 is no effect and 10 is complete control
In short: as §2

[11] = test system: morningglory; experiment: Test B pre/postemergence morningglory; format: in vivo, Ipomoea hederacea; conditions: for Morningglory plant response rating: scale of 0 to 10 where 0 is no effect and 10 is complete control
In short: as §2

[12] = test system: corn; experiment: Test B pre/postemergence corn; format: in vivo, Zea mays; conditions: for Corn plant response rating: scale of 0 to 10 where 0 is no effect and 10 is complete control
In short: as §2

[13] = test system: blackgrass; experiment: Test B pre/postemergence blackgrass; format: in vivo, Alopecurus myosuroides; conditions: for Blackgrass plant response rating: scale of 0 to 10 where 0 is no effect and 10 is complete control
In short: as §2

[14] = test system: velvetleaf; experiment: Test B pre/postemergence velvetleaf; format: in vivo, Abutilon theophrasti; conditions: for Velvetleaf plant response rating: scale of 0 to 10 where 0 is no effect and 10 is complete control
In short: as §2

[15] = test system: bedstraw; experiment: Test B pre/postemergence bedstraw; format: in vivo, Galium aparine; conditions: for Bedstraw plant response rating: scale of 0 to 10 where 0 is no effect and 10 is complete control
In short: as §2

[16] = test system: wheat; experiment: Test B pre/postemergence wheat; format: in vivo, Triticum aestivum; conditions: for Wheat plant response rating: scale of 0 to 10 where 0 is no effect and 10 is complete control
In short: as §2

[17] = Rate 62 g/ha, flood test species, Pre-emergence, visual evaluation after twelve to sixteen days
[18] = Rate 125 g/ha, under heading Pre-emergence, flood test species, visual evaluation after twelve to sixteen days
[19] = Rate 250 g/ha, Pre-emergence, flood-test species, scale 0 to 10, 0 is no effect, 10 is complete control
[20] = Rate 500 g/ha, Pre-emergence, flood test species, scale 0 to 10 (0 no effect, 10 complete control)
[21] = Postemergence, Rate 125 g/ha, scale 0 to 10, 0 is no effect, 10 is complete control
[22] = Postemergence, Rate 250 g/ha, scale 0 to 10, 0 is no effect, 10 is complete control
[23] = Preemergence, Rate 62 g/ha, scale 0 to 10 (0 no effect, 10 complete control)
[24] = Rate 500 g/ha, Postemergence, scale 0 to 10, 0 no effect, 10 complete control

CCOc1nc(C(F)(F)F)c(Cn2c(=O)on(C(=O)N(c3ccccc3)C(C)C)c2=O)s1 [Compound 379]
Plant response rating, Rice (0 to 10 scale, 0 is no effect, 10 is complete control) [1, 17]: 0 | Rice plant response rating (0 to 10 scale, 0 is no effect, 10 is complete control) [1, 18]: 0 | Rice plant response rating [1, 19]: 0 | Rice plant response rating [1, 20]: 0 | Plant response rating, Nutsedge [2, 21]: 0 | Plant response rating, Nutsedge [2, 22]: 0 | Plant response rating, Nutsedge [2, 23]: 0 | Nutsedge plant response rating (0 to 10 scale) ([2]; Preemergence, Rate 125 g/ha): 0 | Nutsedge plant response rating ([2]; Preemergence, Rate 250 g/ha): 0 | Nutsedge plant response rating ([2]; Preemergence, Rate 500 g/ha): 0 | Nutsedge plant response rating ([2]; Rate 62 g/ha, Postemergence): 0 | Plant response rating, Nutsedge [2, 24]: 0 | Plant response rating, Crabgrass [3, 21]: 0 | Plant response rating, Crabgrass [3, 22]: 0 | Plant response rating, Crabgrass [3, 23]: 0 | Crabgrass plant response rating (0 to 10 scale) ([3]; Preemergence, Rate 125 g/ha): 0 | Crabgrass plant response rating ([3]; Preemergence, Rate 250 g/ha): 7 | Crabgrass plant response rating ([3]; Preemergence, Rate 500 g/ha): 8 | Crabgrass plant response rating ([3]; Rate 62 g/ha, Postemergence): 0 | Plant response rating, Crabgrass [3, 24]: 0 | Plant response rating, Rape [4, 21]: 0 | Plant response rating, Rape [4, 22]: 0 | Plant response rating, Rape [4, 23]: 0 | Rape plant response rating (0 to 10 scale) ([4]; Preemergence, Rate 125 g/ha): 0 | Rape plant response rating ([4]; Preemergence, Rate 250 g/ha): 0 | Rape plant response rating ([4]; Preemergence, Rate 500 g/ha): 0 | Rape plant response rating ([4]; Rate 62 g/ha, Postemergence): 0 | Plant response rating, Rape [4, 24]: 0 | Plant response rating, Ducksalad (0 to 10 scale, 0 is no effect, 10 is complete control) [5, 17]: 0 | Ducksalad plant response rating (0 to 10 scale, 0 is no effect, 10 is complete control) [5, 18]: 0 | Ducksalad plant response rating [5, 19]: 0 | Ducksalad plant response rating [5, 20]: 0 | Plant response rating, Redroot pigweed [6, 21]: 0 | Plant response rating, Redroot pigweed [6, 22]: 1 | Plant response rating, Redroot pigweed [6, 23]: 0 | Redroot pigweed plant response rating (0 to 10 scale) ([6]; Preemergence, Rate 125 g/ha): 0 | Redroot pigweed plant response rating ([6]; Preemergence, Rate 250 g/ha): 0 | Redroot pigweed plant response rating ([6]; Preemergence, Rate 500 g/ha): 0 | Redroot pigweed plant response rating ([6]; Rate 62 g/ha, Postemergence): 0 | Plant response rating, Redroot pigweed [6, 24]: 1 | Plant response rating, Wild oats [7, 21]: 0 | Plant response rating, Wild oats [7, 22]: 0 | Plant response rating, Wild oats [7, 23]: 0 | Wild oats plant response rating (0 to 10 scale) ([7]; Preemergence, Rate 125 g/ha): 0 | Wild oats plant response rating ([7]; Preemergence, Rate 250 g/ha): 0 | Wild oats plant response rating ([7]; Preemergence, Rate 500 g/ha): 0 | Wild oats plant response rating ([7]; Rate 62 g/ha, Postemergence): 0 | Plant response rating, Wild oats [7, 24]: 0 | Plant response rating, B. signalgrass [8, 21]: 0 | Plant response rating, B. signalgrass [8, 22]: 0 | Plant response rating, B. signalgrass [8, 23]: 0 | B. signalgrass plant response rating (0 to 10 scale, 0 is no effect, 10 is complete control) ([8]; Preemergence, Rate 125 g/ha): 0 | B. signalgrass plant response rating ([8]; Preemergence, Rate 250 g/ha): 0 | B. signalgrass plant response rating ([8]; Preemergence, Rate 500 g/ha): 0 | B. signalgrass plant response rating ([8]; Rate 62 g/ha, Postemergence): 0 | Plant response rating, B. signalgrass [8, 24]: 0 | Plant response rating, Soybean [9, 21]: 1 | Plant response rating, Soybean [9, 22]: 1 | Plant response rating, Soybean [9, 23]: 0 | Soybean plant response rating (0 to 10 scale) ([9]; Preemergence, Rate 125 g/ha): 0 | Soybean plant response rating ([9]; Preemergence, Rate 250 g/ha): 0 | Soybean plant response rating ([9]; Preemergence, Rate 500 g/ha): 0 | Soybean plant response rating ([9]; Rate 62 g/ha, Postemergence): 1 | Plant response rating, Soybean [9, 24]: 2 | Plant response rating, Giant foxtail [10, 21]: 0 | Plant response rating, Giant foxtail [10, 22]: 2 | Plant response rating, Giant foxtail [10, 23]: 0 | Giant foxtail plant response rating (0 to 10 scale) ([10]; Preemergence, Rate 125 g/ha): 1 | Giant foxtail plant response rating ([10]; Preemergence, Rate 250 g/ha): 6 | Giant foxtail plant response rating ([10]; Preemergence, Rate 500 g/ha): 9 | Giant foxtail plant response rating ([10]; Rate 62 g/ha, Postemergence): 0 | Plant response rating, Giant foxtail [10, 24]: 7 | Plant response rating, Morningglory [11, 21]: 7 | Plant response rating, Morningglory [11, 22]: 8 | Plant response rating, Morningglory [11, 23]: 0 | Morningglory plant response rating (0 to 10 scale) ([11]; Preemergence, Rate 125 g/ha): 0 | Morningglory plant response rating ([11]; Preemergence, Rate 250 g/ha): 0 | Morningglory plant response rating ([11]; Preemergence, Rate 500 g/ha): 0 | Morningglory plant response rating ([11]; Rate 62 g/ha, Postemergence): 5 | Plant response rating, Morningglory [11, 24]: 10 | Plant response rating, Corn [12, 21]: 0 | Plant response rating, Corn [12, 22]: 0 | Plant response rating, Corn [12, 23]: 0 | Corn plant response rating (0 to 10 scale) ([12]; Preemergence, Rate 125 g/ha): 0 | Corn plant response rating ([12]; Preemergence, Rate 250 g/ha): 0 | Corn plant response rating ([12]; Preemergence, Rate 500 g/ha): 0 | Corn plant response rating ([12]; Rate 62 g/ha, Postemergence): 0 | Plant response rating, Corn [12, 24]: 0 | Plant response rating, Blackgrass [13, 21]: 0 | Plant response rating, Blackgrass [13, 22]: 0 | Plant response rating, Blackgrass [13, 23]: 0 | Blackgrass plant response rating (0 to 10 scale) ([13]; Preemergence, Rate 125 g/ha): 0 | Blackgrass plant response rating ([13]; Preemergence, Rate 250 g/ha): 0 | Blackgrass plant response rating ([13]; Preemergence, Rate 500 g/ha): 0 | Blackgrass plant response rating ([13]; Rate 62 g/ha, Postemergence): 0 | Plant response rating, Blackgrass [13, 24]: 0 | Plant response rating, Velvetleaf [14, 21]: 0 | Plant response rating, Velvetleaf [14, 22]: 0 | Plant response rating, Velvetleaf [14, 23]: 0 | Velvetleaf plant response rating (0 to 10 scale) ([14]; Preemergence, Rate 125 g/ha): 0 | Velvetleaf plant response rating ([14]; Preemergence, Rate 250 g/ha): 0 | Velvetleaf plant response rating ([14]; Preemergence, Rate 500 g/ha): 0 | Velvetleaf plant response rating ([14]; Rate 62 g/ha, Postemergence): 0 | Plant response rating, Velvetleaf [14, 24]: 0 | Plant response rating, Bedstraw [15, 21]: 0 | Plant response rating, Bedstraw [15, 22]: 0 | Plant response rating, Bedstraw [15, 23]: 0 | Bedstraw plant response rating (0 to 10 scale) ([15]; Preemergence, Rate 125 g/ha): 0 | Bedstraw plant response rating ([15]; Preemergence, Rate 250 g/ha): 0 | Bedstraw plant response rating ([15]; Rate 62 g/ha, Postemergence): 0 | Plant response rating, Bedstraw [15, 24]: 0 | Plant response rating, Wheat [16, 21]: 0 | Plant response rating, Wheat [16, 22]: 0 | Plant response rating, Wheat [16, 23]: 0 | Wheat plant response rating (0 to 10 scale) ([16]; Preemergence, Rate 125 g/ha): 0 | Wheat plant response rating ([16]; Preemergence, Rate 250 g/ha): 0 | Wheat plant response rating ([16]; Preemergence, Rate 500 g/ha): 0 | Wheat plant response rating ([16]; Rate 62 g/ha, Postemergence): 0 | Plant response rating, Wheat [16, 24]: 0
